Calls of active or inactive are those of the source.

In experiment [1] the target is Trypsin (Sus scrofa, UniProt P00761). Put plainly: porcine trypsin inhibitors, dose response, selectivity assay for Rce1 protease inhibitor project, biochemical, quenched peptide fluorescence, cherry-pick (AID 488789).
Experiment [2] deals with CAAX prenyl protease 2 (Homo sapiens, UniProt Q9Y256). Put plainly: human Rce1 protease inhibitors, dose response, biochemical, yeast membranes, quenched-peptide fluorescence, cherry-pick (AID 588849).
Chain of CAAX prenyl protease 2 (Homo sapiens, UniProt Q9Y256) (Q9Y256 whole entry): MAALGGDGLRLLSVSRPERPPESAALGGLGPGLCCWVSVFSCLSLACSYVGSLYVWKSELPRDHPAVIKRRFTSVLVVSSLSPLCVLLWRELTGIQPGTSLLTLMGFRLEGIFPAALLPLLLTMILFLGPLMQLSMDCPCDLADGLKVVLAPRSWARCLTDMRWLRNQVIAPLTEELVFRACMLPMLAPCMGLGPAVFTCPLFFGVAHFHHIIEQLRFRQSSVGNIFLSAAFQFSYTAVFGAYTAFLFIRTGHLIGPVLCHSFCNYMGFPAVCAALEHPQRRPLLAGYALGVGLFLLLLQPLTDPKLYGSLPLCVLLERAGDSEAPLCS
For experiment [3], the target named is CAAX prenyl protease 2 (Saccharomyces cerevisiae S288c, UniProt Q03530). The class given is biochemical.
Chain of CAAX prenyl protease 2 (Saccharomyces cerevisiae S288c, UniProt Q03530) (Q03530 whole entry): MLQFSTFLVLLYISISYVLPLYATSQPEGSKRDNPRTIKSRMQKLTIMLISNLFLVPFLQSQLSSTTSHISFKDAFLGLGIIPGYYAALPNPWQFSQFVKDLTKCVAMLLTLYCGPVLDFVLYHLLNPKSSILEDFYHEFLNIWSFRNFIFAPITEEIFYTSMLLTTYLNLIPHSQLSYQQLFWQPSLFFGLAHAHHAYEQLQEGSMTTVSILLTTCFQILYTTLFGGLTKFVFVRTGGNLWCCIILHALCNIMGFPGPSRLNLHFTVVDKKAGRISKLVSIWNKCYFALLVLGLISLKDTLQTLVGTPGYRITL
Experiment [4] deals with T1, Tyrosine-protein phosphatase non-receptor type 7 (Homo sapiens, UniProt P35236).
T1 sequence (P35236 whole entry): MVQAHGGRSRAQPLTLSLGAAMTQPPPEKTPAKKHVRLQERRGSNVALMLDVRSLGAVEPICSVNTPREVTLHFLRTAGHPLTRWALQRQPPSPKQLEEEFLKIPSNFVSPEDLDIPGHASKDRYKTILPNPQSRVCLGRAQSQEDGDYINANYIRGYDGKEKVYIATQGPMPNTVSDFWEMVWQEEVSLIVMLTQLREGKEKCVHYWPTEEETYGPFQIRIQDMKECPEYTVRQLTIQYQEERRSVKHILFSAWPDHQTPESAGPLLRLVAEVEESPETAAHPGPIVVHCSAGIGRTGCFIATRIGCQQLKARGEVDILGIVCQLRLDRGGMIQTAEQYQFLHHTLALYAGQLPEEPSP
Put plainly: SAR analysis of chemical inhibitors of HePTP using a Fluorescent assay - Set 2. [Related pubchem assays (depositor defined):AID1059, AID1077, AID1661, AID2085, AID521]. The class given is functional.

The target in experiment [5] is Dual specificity protein phosphatase 3 (Homo sapiens, UniProt P51452). Put plainly: SAR VHR1 Fluorescent Assay for In Vitro dose response studies Set 2. [Related pubchem assays (depositor defined):AID1654, AID1661, AID1878]. The class given is functional.
Chain of Dual specificity protein phosphatase 3 (P51452 whole entry): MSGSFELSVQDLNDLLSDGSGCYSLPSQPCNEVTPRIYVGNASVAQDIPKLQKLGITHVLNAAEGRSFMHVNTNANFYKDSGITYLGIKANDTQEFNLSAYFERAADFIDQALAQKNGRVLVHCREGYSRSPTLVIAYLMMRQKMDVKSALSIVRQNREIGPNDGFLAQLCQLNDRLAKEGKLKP
For experiment [6], the target named is T2, Coagulation factor XII (Homo sapiens, UniProt P00748).
T2 sequence (P00748 whole entry): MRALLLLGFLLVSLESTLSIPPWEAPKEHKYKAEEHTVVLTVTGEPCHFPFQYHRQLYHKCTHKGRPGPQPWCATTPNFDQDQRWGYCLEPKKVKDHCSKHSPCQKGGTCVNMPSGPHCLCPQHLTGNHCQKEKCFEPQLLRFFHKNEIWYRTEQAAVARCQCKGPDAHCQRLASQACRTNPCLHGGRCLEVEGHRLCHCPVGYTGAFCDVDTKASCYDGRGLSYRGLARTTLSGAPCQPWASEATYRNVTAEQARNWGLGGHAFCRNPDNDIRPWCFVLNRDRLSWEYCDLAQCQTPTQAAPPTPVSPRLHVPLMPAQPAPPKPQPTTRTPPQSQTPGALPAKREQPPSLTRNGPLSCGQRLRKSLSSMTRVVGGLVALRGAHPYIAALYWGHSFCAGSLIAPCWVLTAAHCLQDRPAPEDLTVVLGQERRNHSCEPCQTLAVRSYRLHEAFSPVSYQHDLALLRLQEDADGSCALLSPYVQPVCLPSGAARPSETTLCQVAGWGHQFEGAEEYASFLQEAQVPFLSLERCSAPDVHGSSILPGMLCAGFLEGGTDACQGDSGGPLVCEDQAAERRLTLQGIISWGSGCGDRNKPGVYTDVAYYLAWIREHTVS
Briefly: Factor XIIa Dose Response Confirmation from Single Well HTS. [Related pubchem assays (depositor defined):AID701]. The class given is functional.

In experiment [7] the target is T2, Coagulation factor XII. Briefly: FXIIa inhibitor potency, concentration-response, biochemical (AID 716). The class given is functional.

Chain of Trypsin (P00761 whole entry): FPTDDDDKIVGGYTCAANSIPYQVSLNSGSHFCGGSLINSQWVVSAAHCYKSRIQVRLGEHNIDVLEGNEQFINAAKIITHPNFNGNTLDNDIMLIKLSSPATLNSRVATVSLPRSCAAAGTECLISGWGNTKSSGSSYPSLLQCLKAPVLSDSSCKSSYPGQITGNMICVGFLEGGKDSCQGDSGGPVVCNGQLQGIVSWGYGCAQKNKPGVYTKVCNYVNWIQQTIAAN

`Cc1csc(NC(=O)c2ccccc2O)n1`: the values for the AC50 in experiment [1] and in experiment [2] were > 100 µM (inactive) and 19.3 µM (active), respectively.

In the case of `CS(=O)(=O)Nc1ccccc1C(=O)NC1CC2CCC1C2` (configuration not stated), the AC50 in experiment [3] was 3.03 µM (active).

With `Cc1ccc(-n2c(N)c(C(=O)N3CCOCC3)sc2=S)cc1`, the IC50 in experiment [4] and in experiment [5] was > 100 µM (inactive) throughout.

Regarding `O=C(Oc1nsnc1N1CCOCC1)c1ccccc1`, the IC50 in experiment [6] is 4.38 µM (active).

Take `Cc1nnc(NC(=O)C2CCN(c3cnccn3)CC2)s1`: the IC50 in experiment [7] is > 50 µM (inactive).

(Values after ChEMBL document CHEMBL1201862, “PubChem BioAssay data set” (2004).)
